The source of these data is patent US20220089646A1 (THE UNIVERSITY OF QUEENSLAND, priority 2019, published 2022).

Entries after “also recorded” stand apart in the source; their conditions may differ. *1 amine or outer side, *2 acyl side, *3 side chain or, on linkers, in order; H or OH if unused. Where a SMILES comes first, the peptide text is derived from it. Bridges are numbered along the chain shown (N, C = ends). [ ]: non-standard residue; d: D form. ξ: configuration not given here. Phe(4-NO2) = N[C@@H](Cc1ccc([N+](=O)[O-])cc1)C(=O)O; Phe(4-Cl) = N[C@@H](Cc1ccc(Cl)cc1)C(=O)O; NHCH2CMe2S = CC(C)(CN[*:1])S[*:2]; NMeR = CN[C@@H](CCCNC(=N)N)C(=O)O; X1 = CC(C)(CN[*:2])S[*:1]; ξC = NC(CS)C(=O)O; Sar = CNCC(=O)O Bounds are passed on as bounds.

The test system of one data set is trypsin. Briefly: stock trypsin solution (1 mg trypsin in 50 mL of 0.1 M NH4HCO3 buffer). To be noted: 37° C., up to 24 hours.
A further data set deals with KOP (Homo sapiens, UniProt P41145). Briefly: In vitro cAMP activity at KOP (Table 10). Format: cell-based. The following applies: cAMP inhibition, four-parameter regression, normalised to U50488H. The protocol: (§1) The CP series compounds were assayed as follows: The assay was performed using a 96 well ½ area plate. The different cAMP standard solutions (3 μL/well) were plated in duplicate. The different concentrations of drug (3 μL/well), and control solutions (3 μL/well) were plated in triplicate. Following this, the acceptor bead mixture (3 μL/well) was added to the respective sets—either cAMP standard curve or the treatment. This was covered and incubated on the orbital shaker for 60 minutes at 37° C. Then, the donor bead mixture (10 μL/well) was added to each well. This was incubated at room temperature overnight on the orbital shaker.
KOP, sequence (P41145 whole entry): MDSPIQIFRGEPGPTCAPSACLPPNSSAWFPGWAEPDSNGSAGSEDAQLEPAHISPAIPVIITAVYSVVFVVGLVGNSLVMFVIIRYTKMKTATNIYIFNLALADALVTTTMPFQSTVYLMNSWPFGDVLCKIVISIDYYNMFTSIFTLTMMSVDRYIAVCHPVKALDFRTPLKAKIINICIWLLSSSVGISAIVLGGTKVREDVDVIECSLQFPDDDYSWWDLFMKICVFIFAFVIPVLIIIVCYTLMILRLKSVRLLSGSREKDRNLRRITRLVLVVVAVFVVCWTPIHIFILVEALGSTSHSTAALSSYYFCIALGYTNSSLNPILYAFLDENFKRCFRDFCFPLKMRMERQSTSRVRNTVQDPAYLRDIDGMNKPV
(§2) For DP-11-06 the assay was carried out in the same way as for the CP compounds except it was incubated for 30 mins at 37° C.
(§3) For the CP series compounds and DP-11-06, the Ensight® Multimode Plate Reader was used to quantify the fluorescence units of each plate. Before reading, each plate was centrifuged at 280 g for 30 seconds. Using GraphPad Prism7® Software, cAMP concentrations were determined by fit spline/LOWESS analysis. The cAMP standard curve was used for interpolation at this point. The cAMP concentrations were then normalized to the highest cAMP concentration recorded and analyzed by one-way ANOVA for multiple comparisons. The IC50 for each compound was then calculated using GraphPad Prism7® with non-linear regression analysis using four parameter curve fitting.
(§4) The results shown in Table 10 utilized rat plasma. • Note that DP-7-11 and CP5 represent the same compound, and DP-7-12 and CP6 are the same compound. In this regard, a different regression analysis method was adopted on the above cAMP experiments. Particularly, a new non-linear regression (four-parameter) was adopted to better account for hill slope, thereby improving the regression fit.

The target of another data set is MOP (Homo sapiens, UniProt P35372). Briefly: In vitro cAMP activity at MOP (Table 10). The following applies: cAMP inhibition, four-parameter regression. In kind it is cell-based. The protocol: as §1, §2, §3
MOP, sequence (P35372 whole entry): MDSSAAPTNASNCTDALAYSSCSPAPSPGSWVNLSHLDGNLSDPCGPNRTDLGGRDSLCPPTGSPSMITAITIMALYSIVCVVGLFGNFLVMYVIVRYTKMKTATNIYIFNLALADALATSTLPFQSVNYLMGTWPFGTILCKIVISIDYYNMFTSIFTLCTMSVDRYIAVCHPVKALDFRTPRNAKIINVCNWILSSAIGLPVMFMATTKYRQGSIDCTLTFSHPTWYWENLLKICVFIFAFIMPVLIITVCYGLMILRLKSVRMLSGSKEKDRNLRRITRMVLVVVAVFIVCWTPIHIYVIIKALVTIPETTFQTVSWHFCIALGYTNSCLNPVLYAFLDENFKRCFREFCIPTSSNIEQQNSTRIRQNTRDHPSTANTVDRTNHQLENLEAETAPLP
(§5) In this regard, a different regression analysis method was adopted on the above cAMP experiments. Particularly, a new non-linear regression (four-parameter) was adopted to better account for hill slope, thereby improving the regression fit.

A further data set deals with DOP (Homo sapiens, UniProt P41143). Briefly: In vitro cAMP activity at DOP (Table 10). In kind it is cell-based. The following applies: cAMP inhibition, four-parameter regression. The protocol: as §1, §2, §3, §5
DOP, sequence (P41143 whole entry): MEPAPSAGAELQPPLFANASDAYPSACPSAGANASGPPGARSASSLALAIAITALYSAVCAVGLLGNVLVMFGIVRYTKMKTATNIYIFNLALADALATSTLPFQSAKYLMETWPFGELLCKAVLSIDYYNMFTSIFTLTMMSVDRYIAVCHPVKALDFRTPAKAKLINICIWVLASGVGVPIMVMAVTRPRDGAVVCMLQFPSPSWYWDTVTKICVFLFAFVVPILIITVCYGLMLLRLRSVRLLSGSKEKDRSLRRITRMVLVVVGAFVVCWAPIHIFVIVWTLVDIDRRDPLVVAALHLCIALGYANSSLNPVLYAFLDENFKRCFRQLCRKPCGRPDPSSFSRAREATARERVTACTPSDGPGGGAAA
Data set [1] deals with T1, bovine pancreatic trypsin (Bos taurus, UniProt P00760).
T1 construct: from tissue; host or cells: bovine pancreas
T1 sequence (P00760 24-246): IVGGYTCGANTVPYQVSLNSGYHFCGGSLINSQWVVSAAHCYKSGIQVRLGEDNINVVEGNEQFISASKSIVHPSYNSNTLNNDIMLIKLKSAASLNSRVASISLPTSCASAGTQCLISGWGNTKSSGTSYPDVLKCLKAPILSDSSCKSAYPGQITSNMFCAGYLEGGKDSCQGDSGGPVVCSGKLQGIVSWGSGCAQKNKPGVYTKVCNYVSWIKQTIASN
Kind of data set: Trypsin stability assay (Table 10). In kind it is in vitro ADME. The following applies: for half-life / half-life at 100 uM: bovine pancreatic trypsin 2.5 μg/mL, 37° C., One Phase Decay, read-out: Stability (t1/2, mins) Trypsin; for half-life at 100 uM: bovine pancreatic trypsin solution; for Degradation in trypsin: over the 120 minute assay. The source says: (§6) FIG. 20 is a series of graphs showing the stability of selected peptides in a trypsin (left-hand graphs) and plasma (right-hand graphs) stability assay (data normalised to concentration of each peptide at t=0, determined by LCMS, within each substrate; data analysed using One Phase Decay nonlinear regression in Prism software and each experiment performed in triplicate; mean+/−SEM);
Plasma was collected in house from adult mixed-gender Wistar rats, prepared using 2% EDTA as per standard practice. Peptides were added to rat plasma samples at 37° C. (in a water bath) with final concentrations of 100 uM (1:9 peptide in water:plasma) and a 50 μL sample was immediately taken and precipitated in 150 μL cold acetonitrile (9:1 ACN:water). This sample became the baseline, or t=0 min sample. […] At each time point, the 50 μL of plasma collected was immediately added to cold ACN. Each collected plasma sample in ACN was directly vortexed for 30 seconds and then centrifuged at room temperature (13K rpm, 5 min). 150 μL of the supernatant was taken and directly placed in glass HPLC vials for LCMS analysis.
The protocol for the trypsin stability assay was very similar to the plasma stability assay discussed above. The only difference was the use of a trypsin solution (bovine pancreatic trypsin 2.5 μg/mL in NH4HCO3 buffer, pH approx. 8-8.5, 37° C.) instead of rat plasma. Volumes, times and preparation protocols were exactly as mentioned above.

The nature of data set [2]: Plasma stability assay (Table 10). Format: in vitro ADME. The following applies: 37° C., 100 uM peptide, One Phase Decay, read-out: Stability (t1/2, mins) Plasma; for half-life: rat plasma; for half-life at 100 uM: both sexes, Wistar, rat plasma (EDTA).
Description: as §6, §4
Plasma was collected in house from adult mixed-gender Wistar rats, prepared using 2% EDTA as per standard practice. Peptides were added to rat plasma samples at 37° C. (in a water bath) with final concentrations of 100 uM (1:9 peptide in water:plasma) and a 50 μL sample was immediately taken and precipitated in 150 μL cold acetonitrile (9:1 ACN:water). This sample became the baseline, or t=0 min sample. Plasma with peptide was immediately returned to the water bath and subsequent 50 μL samples were taken at 5, 10, 15, 30, 60 and 120 min. At each time point, the 50 μL of plasma collected was immediately added to cold ACN. Each collected plasma sample in ACN was directly vortexed for 30 seconds and then centrifuged at room temperature (13K rpm, 5 min). 150 μL of the supernatant was taken and directly placed in glass HPLC vials for LCMS analysis.

A short description of a further data set: Stability in cAMP buffer. Format: physicochemical. The following applies: over 60 minutes. From the text:
Select compounds were also screened for stability in cAMP buffer, to assess whether they degrade spontaneously in the cell assay environment, in the absence of cellular metabolic processes.

Data set [3] deals with bovine pancreatic trypsin. Kind of data set: bovine pancreatic trypsin 2.5 μg/mL in NH4HCO3 buffer, pH approx. 8-8.5. To be noted: 37° C., up to 120 min.

On to Tyr-Gly-Gly-Phe-Leu-Arg-Arg, for which, in the data set on trypsin, the fragment found entry is listed as “DYN A (1-6), 15 min”.
`CC(C)C[C@H](NC(=O)[C@H](Cc1ccc(Cl)cc1)NC(=O)CN(C)C(=O)[C@@H](N)Cc1ccc(O)cc1)C(=O)N[C@@H](CCCNC(=N)N)C(=O)N[C@H](CCCNC(=N)N)C(=O)N[C@H]1CSSC(C)(C)CNC(=O)C[C@@H](C(N)=O)NC1=O` [CP9, c(Tyr-Sar-(p-Cl-Phe)-Leu-Arg-D(Arg)-SSa-Asp)] (H-Y[Sar][Phe(4-Cl)]LR[dR]CD-NH2; linker 7-8 via X1): the half-maximal effective concentration (EC50) at KOP is 1.8 nM; on MOP, more than 10000 nM; on DOP, more than 10000 nM. Moreover, the half-life is 49.8 min in data set [1] and 85.5 min in data set [2]. The “Degradation in cAMP assay buffer” value in the data set “Stability in cAMP buffer” is listed as “no degradation”.
Consider “c(Tyr-Sar-(p-NO2-Phe)-Leu-Arg-NMA-D(Asp)-D(Arg)-SSa-D(Lys))”, for which the not cleaved result in data set [3] was “no sign of degradation over the 120 minute assay”.
Take “Tyr-Gly-Gly-Phe-Leu-Arg-Arg-Ile-Arg-Pro-Lys”: in the data set on trypsin, the fragment found entry is on record as “DYN A (1-7), first_seen, initial time point samples; also recorded: DYN A (1-6), first_seen, initial time point samples” and the not cleaved entry is reported as “DYN 1-9 was not observed upon trypsin digestion”.
On to `CC1(C)CNC(=O)C[C@H](NC(=O)[C@@H](N)Cc2ccc(O)cc2)C(=O)NCC(=O)N[C@@H](Cc2ccccc2)C(=O)NC(C(=O)N[C@@H](CCCNC(=N)N)C(=O)N[C@@H](CCCNC(=N)N)C(N)=O)CSS1` (stereo partly drawn) [CP2, c(Tyr-Asp-Gly-Phe-SSa-Arg-Arg)] (H-YDGF[ξC]RR-NH2; linker 2-5 via NHCH2CMe2S; N-terminus assumed), for which the EC50 on KOP came out at 320 nM; on MOP, 2330 nM; at DOP, 1380 nM. Besides, the half-life in data set [1] and in data set [2] was less than 0.01 min throughout.
For `CC(C)C[C@H](NC(=O)[C@H](Cc1ccc([N+](=O)[O-])cc1)NC(=O)CN(C)C(=O)[C@@H](N)Cc1ccc(O)cc1)C(=O)N[C@@H](CCCNC(=N)N)C(=O)N[C@H](CCCNC(=N)N)C(=O)N[C@@H]1CSSC(C)(C)CNC(=O)C[C@H](C(=O)N[C@@H](CCCCN)C(N)=O)NC(=O)[C@H](CCCNC(=N)N)NC1=O` [CP13, c(Tyr-Sar(p-NO2-Phe)-Leu-Arg-D(Arg)-SSa-Arg-D(Asp)-Lys] (H-Y[Sar][Phe(4-NO2)]LR[dR][dC]R[dD]K-NH2; linker 7-9 via X1), the EC50 was 16 nM at KOP and more than 10000 nM at MOP. In addition, the results for the half-life at 100 uM in data set [1] and in data set [2] were 1410 min and 63.3 min, respectively. Moreover, the Degradation in trypsin result in data set [1] was “no sign of degradation”. Besides, in the data set “Stability in cAMP buffer”, the “Degradation in cAMP assay buffer” value is recorded as “no degradation”.
Consider `CC(C)C[C@H](NC(=O)[C@H](Cc1ccc([N+](=O)[O-])cc1)NC(=O)CN(C)C(=O)[C@@H](N)Cc1ccc(O)cc1)C(=O)N[C@@H](CCCNC(=N)N)C(=O)N(C)[C@@H](CCCNC(=N)N)C(=O)N[C@@H]1CC(=O)NCC(C)(C)SSC[C@H](C(=O)N[C@H](CCCCN)C(N)=O)NC(=O)[C@@H](CCCNC(=N)N)NC1=O` [CP14, c(Tyr-Sar-(p-NO2-Phe)-Leu-Arg-NMA-D(Asp)-D(Arg)-SSa-D(Lys))] (H-Y[Sar][Phe(4-NO2)]LR[NMeR][dD][dR][dC][dK]-NH2; linker 7-9 via NHCH2CMe2S), for which the results for the EC50 at KOP and at MOP were 4.4 nM and more than 10000 nM, respectively. The half-life at 100 uM in data set [1] stood at 2320 min; in data set [2], 70.8 min. In addition, in data set [1], the Degradation in trypsin entry was “no sign of degradation”. Moreover, in “Stability in cAMP buffer”, the “Degradation in cAMP assay buffer” value is “no degradation”.
As to “c(Tyr-Sar(p-NO2-Phe)-Leu-Arg-D(Arg)-SSa-Arg-D(Asp)-Lys”, in data set [3], the not cleaved entry is given as “no sign of degradation over the 120 minute assay”.
Take “c(Tyr-Gly-Gly-Phe-D(Asp)-Arg-SSa-Ile-Arg-Pro-Lys)”: the not cleaved result in the data set on trypsin is listed as “Stable up to 6 h; more than 90% remained after 360 minutes”.
